Experimental data from patent US9714213B2, “4-aminomethylbenzoic acid derivative” (TOA EIYO LTD., priority 2013, dated 2017).
Where two headings read alike, the source gives them in different places.

Legend:
rat ventral aorta = assay: Blood vessel relaxation activity, phenylephrine-contracted rat ventral aorta ring specimen; conditions: relaxation of 1 μmol/L phenylephrine contraction; EC50 without ODQ / EC50 with 10 μmol/L ODQ
Protocol: A representative compound of the present invention was assayed for blood vessel relaxation activity according to the Test Example described below. In the assay, a rat (male, SD) was phlebotomized from the upper part of the heart under pentobarbital (30 mg/kg) anesthesia, and the ventral aorta was extracted. The connective tissue adhering around the blood vessel in the ventral aorta was removed in an ice-cooled Krebs-Henseleit solution (KH solution) (118 mmol/L sodium chloride, 4.7 mmol/L potassium chloride, 1.2 mmol/L magnesium sulfate, 1.2 mmol/L potassium dihydrogenphosphate, 25 mmol/L sodium hydrogen carbonate, 2.5 mmol/L calcium chloride and 10 mmol/L glucose, pH 7.4). Then, a ring specimen of 2 mm length was prepared, and fixed in 5 mL organ bath filled with the KH solution. The KH solution was maintained at 37° C., and a mixed gas of 95% O2 and 5% CO2 was ventilated. The specimen was stabilized with 1 g of the resting tension for 1 hour. In the meantime, the KH solution was exchanged twice. The tension of the specimen was recorded with a multichannel recorder through a pickup and an amplifier. After stabilization of the specimen, contraction was induced with 1 μmol/L phenylephrine (Phe), and cumulative administration of each compound (0.001, 0.01, 0.03, 0.1, 0.3, 1, 3, 10, 30, 100, 1000, 10000 nmol/L) was carried out. In the case of evaluation at the time of containing ODQ, 10 μmol/L ODQ was added 10 minutes before administration of Phe, and similar evaluation was performed.
EC50 value was calculated by Four-parameter Logistic Model with Assay Explorer (Accelrys, Inc.). Meanwhile, the solution of the test compound was prepared by dissolving the compound in DMSO to prepare solutions having the concentration of each test compound 1000 times higher than the final concentration.

human sGC = target: T1, human sGC (Homo sapiens, UniProt Q02153); assay: Maximum effect of sGC activation (intracellular Ca2+, Fura2-AM) in CHO-K1 cells stably expressing human sGC and mouse CNGA2; assay type: cell-based; conditions: increase rate of sGC activity vs DMSO control, test compound 10 μmol/L
T1 construct: expressed in transfected cells; host or cells: CHO-K1 (Chinese hamster ovary) cells
T1 sequence (Q02153 1-619): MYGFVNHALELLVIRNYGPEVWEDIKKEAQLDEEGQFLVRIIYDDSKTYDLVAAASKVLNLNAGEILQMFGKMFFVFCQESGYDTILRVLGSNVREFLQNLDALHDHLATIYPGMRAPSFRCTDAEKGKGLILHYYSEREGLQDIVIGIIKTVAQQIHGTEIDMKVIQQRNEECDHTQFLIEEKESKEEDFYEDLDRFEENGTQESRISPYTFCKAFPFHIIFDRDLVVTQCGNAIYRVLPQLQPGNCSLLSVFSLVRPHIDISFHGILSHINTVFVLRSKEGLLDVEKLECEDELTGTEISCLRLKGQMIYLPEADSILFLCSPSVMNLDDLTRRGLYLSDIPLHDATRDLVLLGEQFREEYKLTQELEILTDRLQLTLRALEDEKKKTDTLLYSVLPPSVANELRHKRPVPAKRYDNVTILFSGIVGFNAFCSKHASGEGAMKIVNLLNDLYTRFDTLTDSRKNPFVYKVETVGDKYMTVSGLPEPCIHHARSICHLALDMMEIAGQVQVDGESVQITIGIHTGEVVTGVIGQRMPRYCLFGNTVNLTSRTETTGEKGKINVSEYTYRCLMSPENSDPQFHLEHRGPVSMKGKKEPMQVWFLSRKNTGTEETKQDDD
T1 sequence (Q02108 1-690 partner): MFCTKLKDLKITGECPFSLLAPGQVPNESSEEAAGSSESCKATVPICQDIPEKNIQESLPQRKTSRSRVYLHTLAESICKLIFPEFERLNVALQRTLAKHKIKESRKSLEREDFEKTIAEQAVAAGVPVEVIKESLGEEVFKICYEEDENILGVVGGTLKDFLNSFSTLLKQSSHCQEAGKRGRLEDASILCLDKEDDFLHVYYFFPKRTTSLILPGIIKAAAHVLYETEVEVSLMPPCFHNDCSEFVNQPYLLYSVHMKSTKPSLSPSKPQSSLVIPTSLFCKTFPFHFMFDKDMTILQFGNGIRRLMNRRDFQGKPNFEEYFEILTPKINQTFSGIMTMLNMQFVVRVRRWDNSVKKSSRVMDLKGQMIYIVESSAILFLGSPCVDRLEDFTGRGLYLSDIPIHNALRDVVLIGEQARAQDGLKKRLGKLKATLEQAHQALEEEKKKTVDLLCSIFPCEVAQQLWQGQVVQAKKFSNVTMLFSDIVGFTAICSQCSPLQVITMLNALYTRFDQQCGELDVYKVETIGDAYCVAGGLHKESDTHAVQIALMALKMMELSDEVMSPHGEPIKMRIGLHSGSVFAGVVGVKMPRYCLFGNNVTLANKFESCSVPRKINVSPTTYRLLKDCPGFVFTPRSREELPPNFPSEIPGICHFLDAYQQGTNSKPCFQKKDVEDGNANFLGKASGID
Protocol: For the assay, chinese hamster ovary cells (CHO-K1 cells) stably expressing both α and β subunits of human sGC and mouse cyclic nucleotide-gated channel (CNGA2) were used.
The CHO-K1 cells stably expressing human sGC and mouse CNGA2 was cultured at 37° C. on F-12 medium containing 10% (v/v) fetal bovine serum (FBS), penicillin (100 U/mL), streptomycin (100 μg/mL), G418 (250 μg/mL) and Zeocin (250 μg/mL). The cells were suspended in a culture medium, seeded on a 96 well plate, and then cultured at 37° C. for 24 hours. The cells were washed with Assay buffer 1 (140 mmol/L sodium chloride, 5 mmol/L potassium chloride, 0.5 mmol/L magnesium chloride, 0.01 mmol/L calcium chloride, 10 mmol/L glucose, 0.4 mmol/L magnesium sulfate, 10 mmol/L 4-(2-hydroxyethyl)piperazin-1-ylethanesulfonic acid and 125 μmol/L sulfinpyrazone, pH 7.4), and then added a solution containing Fura2-AM, a fluorescent Ca^2+ indicator, in Assay buffer 1 at […] concentration thereto as an indicator solution, and cultured at 37° C. for 60 minutes. The culture medium was removed, and the cells were washed with Assay buffer 1, and then added a solution containing the test compound thereto, and cultured at room temperature for 10 minutes. A plate was placed onto a fluorometer (FlexStation II, Molecular Devices), and the intracellular calcium concentration was determined as the ratio of fluorescent intensity, obtained from measurement using 340 nm and 380 nm as excitation wavelength and 510 nm as detection wavelength.
The solution of the test compound was prepared by dissolving each test compound in DMSO at 10 mmol/L, and then diluting the solution for the test concentration at 10 μmol/L with Assay buffer (140 mmol/L sodium chloride, 5 mmol/L potassium chloride, 0.5 mmol/L magnesium chloride, 1 mmol/L calcium chloride, 10 mmol/L glucose, 0.4 mmol/L magnesium sulfate, 10 mmol/L 4-(2-hydroxyethyl)piperazin-1-ylethanesulfonic acid, […] sulfinpyrazone, 100 μmol/L isobutyl methyl xanthine, and 10 μmol/L 1H-[1,2,4]-oxadiazol[4,3-a]quinoxaline-1-one (hereinafter, ODQ), pH 7.4). The evaluation in the absence of ODQ was performed similarly, except that ODQ was not added to Assay buffer 2. As a control solution, a DMSO solution was used instead of the test compound solution.
The activity of the test compound defined as the increase rate of the sGC activity (%) at the time of adding the solution of the test compound with respect to the sGC activity at the time of adding the control solution, was calculated by dividing the fluorescent intensity ratio at the time of adding the test compound by the fluorescent intensity ratio of the control solution, and subtracting the sGC activity at the time of adding the control solution (100%).
If sGC is activated in this assay, intracellular cGMP concentration increases and accordingly intracellular Ca^2+ concentration is increased by opening of CNGA2. Accordingly, sGC activation can be measured as the change of Ca^2+ concentration in the cell. […] Accordingly, it is possible to evaluate maximum sGC activation effect including heme-dependent activation in the absence of ODQ, and also possible to evaluate heme independent sGC activation effect in the presence of ODQ.

[1] = 10 μmol/L ODQ present, read-out: Emax (%) ODQ+ (Heme-independent)
[2] = absence of ODQ, read-out: Emax (%) ODQ− (Heme-dependent)

Row | Structure (SMILES) | EC50 Ratio (ODQ−/ODQ+) (rat ventral aorta) | Emax at 10 µM (human sGC; [1]) | Emax at 10 µM (human sGC; [2])
1 | O=C(O)CCCCN(Cc1ccc(C(=O)O)cc1)C[C@H](OCc1ccc(CCc2ccccc2)cc1F)c1ccccc1 [Example 45, (−)-4-{[N-(4-Carboxybutyl)-N-[(2R)-2-[2-fluoro-4-(2-phenylethyl)benzyloxy]-2-phenylethyl]amino]methyl}benzoic acid] | 4.26 | 123% | 109%
2 | CC(C)(CCCN(Cc1ccc(C(=O)O)cc1)CC(OCc1ccc(CCc2ccccc2)cc1)c1ccccc1)C(=O)O (stereo not drawn) [Example 16, 4-{[N-(4-Carboxy-4-methylpentyl)-N-[2-[4-(2-phenylethyl)benzyloxy]-2-phenylethyl]amino]methyl}benzoic acid] | 8.31 | 132% | 92.4%
3 | O=C(O)CCCCN(Cc1ccc(C(=O)O)cc1)C[C@H](OCc1ccc(Oc2ccc(Cl)cc2)cc1)c1ccccc1 [Example 42, (−)-4-{[N-(4-Carboxybutyl)-N-[(2R)-2-[4-(4-chlorophenyloxy)benzyloxy]-2-phenylethyl]amino]methyl}benzoic acid] | 8.40 | 127% | 143%
4 | O=C(O)CCCCN(Cc1ccc(C(=O)O)cc1)CC(OCc1ccc(CCc2ccccc2)cc1)c1ccccc1 (stereo not drawn) [Example 2, 4-{[N-(4-Carboxybutyl)-N-[2-[4-(2-phenylethyl)benzyloxy]-2-phenylethyl]amino]methyl}benzoic acid] | 3.26 | 102% | 130%
5 | O=C(O)CCCCN(Cc1ccc(C(=O)O)cc1)CC(OCc1ccc(CCc2ccccc2)cc1)c1ccsc1 (stereo not drawn) [Example 26, 4-{[N-(4-Carboxybutyl)-N-[2-[4-(2-phenylethyl)benzyloxy]-2-(3-thienyl)ethyl]amino]methyl}benzoic acid] | 7.72 | 110% | 92.6%
6 | O=C(O)CCCCN(Cc1ccc(C(=O)O)cc1)C[C@H](OCc1ccc(CCc2ccccc2)cc1)c1cccc(Cl)c1 [Example 29, (−)-4-{[N-(4-Carboxybutyl)-N-[(2R)-2-(3-chlorophenyl)-2-[4-(2-phenylethyl)benzyloxy]ethyl]amino]methyl}benzoic acid] | 9.66 | 110% | 98.2%
7 | O=C(O)CCCCN(Cc1ccc(C(=O)O)cc1)CC(OCc1ccc(CCc2ccccc2)cc1)c1cccs1 (stereo not drawn) [Example 19] | 6.20 | 122% | 114%
8 | O=C(O)CCCCN(Cc1ccc(C(=O)O)cc1)CC(OCc1ccc(CCc2ccccc2)cc1)c1ccc(Cl)s1 (stereo not drawn) [Example 27, 4-{[N-(4-Carboxybutyl)-N-[2-[4-(2-phenylethyl)benzyloxy]-2-(5-chloro-2-thienyl)ethyl]amino]methyl}benzoic acid] | 2.66 | 118% | 187%

Other lines, results leading:

Row | EC50 Ratio (ODQ−/ODQ+) (rat ventral aorta) | Emax at 10 µM (human sGC; [1]) | Emax at 10 µM (human sGC; [2]) | Structure (SMILES)
9 | 2.61 | 114% | 130% | O=C(O)CCCCN(Cc1ccc(C(=O)O)cc1)CC(OCc1ccc(CCc2ccccc2)s1)c1ccccc1 (stereo not drawn) [Example 25, 4-{[N-(4-Carboxybutyl)-N-[2-[5-(2-phenylethyl)thiophen-2-ylmethoxy]-2-phenylethyl]amino]methyl}benzoic acid]
10 | 6.88 | 113% | 132% | Cc1cccc(C(CN(CCCCC(=O)O)Cc2ccc(C(=O)O)cc2)OCc2ccc(CCc3ccccc3)cc2)c1 (stereo not drawn) [Example 23, 4-{[N-(4-Carboxybutyl)-N-[2-(3-methylphenyl)-2-[4-(2-phenylethyl)benzyloxy]ethyl]amino]methyl}benzoic acid]
11 | 2.99 | 114% | 98% | Cc1ccc(C(CN(CCCCC(=O)O)Cc2ccc(C(=O)O)c(F)c2)OCc2ccc(CCc3ccccc3)cc2)s1 (stereo not drawn) [Example 28, 4-{[N-(4-Carboxybutyl)-N-[2-[4-(2-phenylethyl)benzyloxy]-2-(5-methyl-2-thienyl)ethyl]amino]methyl}-2-fluorobenzoic acid]
